Tests used:
MDA-MB-231 [1] = experiment: Antiproliferative activity against human MDA-MB-231 cells over-expressing LSD1 assessed as reduction in cell viability measured after 72 hrs by MTT assay; conditions: MDA-MB-231, 72 h
DU-145 [2] = experiment: Antiproliferative activity against human DU145 cells over-expressing LSD1 assessed as reduction in cell viability measured after 96 hrs by MTT assay; conditions: DU-145, 96 h
PC-3 [3] = experiment: Antiproliferative activity against human PC3 cells over-expressing LSD1 assessed as reduction in cell viability measured after 96 hrs by MTT assay; conditions: PC-3, 96 h
A2780 [4] = experiment: Antiproliferative activity against human A2780 cells over-expressing LSD1 assessed as reduction in cell viability measured after 72 hrs by MTT assay; conditions: A2780, 72 h
PC-3 [5] = experiment: Antiproliferative activity against human PC3 cells over-expressing LSD1 assessed as reduction in cell viability measured after 72 hrs by MTT assay; conditions: PC-3, 72 h
NCI-H1299 [6] = experiment: Antiproliferative activity against human NCI-H1299 cells over-expressing LSD1 assessed as reduction in cell viability measured after 96 hrs by MTT assay; conditions: NCI-H1299, 96 h
MCF7 [7] = experiment: Antiproliferative activity against human MCF7 cells over-expressing LSD1 assessed as reduction in cell viability measured after 72 hrs by MTT assay; conditions: MCF7, 72 h
NCI-H1299 [8] = experiment: Antiproliferative activity against human NCI-H1299 cells over-expressing LSD1 assessed as reduction in cell viability measured after 72 hrs by MTT assay; conditions: NCI-H1299, 72 h
HCT-116 [9] = experiment: Antiproliferative activity against human HCT116 cells over-expressing LSD1 assessed as reduction in cell viability measured after 96 hrs by MTT assay; conditions: HCT-116, 96 h
SMMC-7721 [10] = experiment: Antiproliferative activity against human SMMC7721 over-expressing LSD1 cells assessed as reduction in cell viability measured after 72 hrs by MTT assay; conditions: SMMC-7721, 72 h
A2780 [11] = experiment: Antiproliferative activity against human A2780 cells over-expressing LSD1 assessed as reduction in cell viability measured after 96 hrs by MTT assay; conditions: A2780, 96 h
MDA-MB-231 [12] = experiment: Antiproliferative activity against human MDA-MB-231 cells over-expressing LSD1 assessed as reduction in cell viability measured after 96 hrs by MTT assay; conditions: MDA-MB-231, 96 h
SMMC-7721 [13] = experiment: Antiproliferative activity against human SMMC7721 cells over-expressing LSD1 assessed as reduction in cell viability measured after 96 hrs by MTT assay; conditions: SMMC-7721, 96 h
HCT-116 [14] = experiment: Antiproliferative activity against human HCT116 cells over-expressing LSD1 assessed as reduction in cell viability measured after 72 hrs by MTT assay; conditions: HCT-116, 72 h
A549 [15] = experiment: Antiproliferative activity against human A549 cells over-expressing LSD1 assessed as reduction in cell viability measured after 96 hrs by MTT assay; conditions: A549, 96 h
MCF7 [16] = experiment: Antiproliferative activity against human MCF7 cells over-expressing LSD1 assessed as reduction in cell viability measured after 96 hrs by MTT assay; conditions: MCF7, 96 h
DU-145 [17] = experiment: Antiproliferative activity against human DU145 cells over-expressing LSD1 assessed as reduction in cell viability measured after 72 hrs by MTT assay; conditions: DU-145, 72 h
A549 [18] = experiment: Antiproliferative activity against human A549 cells over-expressing LSD1 assessed as reduction in cell viability measured after 72 hrs by MTT assay; conditions: A549, 72 h

| IC50 (MDA-MB-231 [1]) [nM] | IC50 (DU-145 [2]) [nM] | IC50 (PC-3 [3]) [nM] | IC50 (A2780 [4]) [nM] | IC50 (PC-3 [5]) [nM] | IC50 (NCI-H1299 [6]) [nM] | IC50 (MCF7 [7]) [nM] | IC50 (NCI-H1299 [8]) [nM] | IC50 (HCT-116 [9]) [nM] | IC50 (SMMC-7721 [10]) [nM] | IC50 (A2780 [11]) [nM] | IC50 (MDA-MB-231 [12]) [nM] | IC50 (SMMC-7721 [13]) [nM] | IC50 (HCT-116 [14]) [nM] | IC50 (A549 [15]) [nM] | IC50 (MCF7 [16]) [nM] | IC50 (DU-145 [17]) [nM] | IC50 (A549 [18]) [nM] | Structure (SMILES) |
| --- | --- | --- | --- | --- | --- | --- | --- | --- | --- | --- | --- | --- | --- | --- | --- | --- | --- | --- |
| 710 | 180 | 760 | 1130 | 2450 | 980 | 410 | 3330 | 270 | 3160 | 790 | 460 | 1220 | 480 | 400 | 300 | 2950 | 780 | O=C(N/N=C1\CCc2c(Cl)ccc(O)c21)c1cccc(S(=O)(=O)N2CCOCC2)c1 |
| 680 | 220 | 1000 | 810 | 3110 | 790 | 300 | 2010 | 250 | 2960 | 340 | 410 | 1340 | 360 | 390 | 220 | 2490 | 920 | O=C(N/N=C1\CCc2cccc(O)c21)c1cccc(S(=O)(=O)N2CCOCC2)c1 |

| Structure (SMILES) | IC50 (MDA-MB-231 [1]) [nM] | IC50 (DU-145 [2]) [nM] | IC50 (PC-3 [3]) [nM] | IC50 (A2780 [4]) [nM] | IC50 (PC-3 [5]) [nM] | IC50 (NCI-H1299 [6]) [nM] | IC50 (MCF7 [7]) [nM] | IC50 (NCI-H1299 [8]) [nM] | IC50 (HCT-116 [9]) [nM] | IC50 (SMMC-7721 [10]) [nM] | IC50 (A2780 [11]) [nM] | IC50 (MDA-MB-231 [12]) [nM] | IC50 (SMMC-7721 [13]) [nM] | IC50 (HCT-116 [14]) [nM] | IC50 (A549 [15]) [nM] | IC50 (MCF7 [16]) [nM] | IC50 (DU-145 [17]) [nM] | IC50 (A549 [18]) [nM] |
| --- | --- | --- | --- | --- | --- | --- | --- | --- | --- | --- | --- | --- | --- | --- | --- | --- | --- | --- |
| C/C(=N\NC(=O)c1cccc(S(=O)(=O)N2CCOCC2)c1)c1cc(Cl)ccc1O | 1400 | 620 | 4450 | 2140 | 19700 | 1730 | 440 | 3010 | 330 | 15800 | 770 | 750 | 5360 | 650 | 830 | 190 | 13100 | 2690 |

From ChEMBL document CHEMBL4431347, “Synthesis and biological evaluation of novel (E)-N'-(2,3-dihydro-1H-inden-1-ylidene) benzohydrazides as potent LSD1 inhibitors” (Bioorg Med Chem Lett, 2016)
